Data on one compound can be found in article PMC7930564, “First Case of Glyphosate Resistance in Bromus catharticus Vahl.: Examination of Endowing Resistance Mechanisms” (Frontiers in Plant Science, 2021).

The experiment deals with T1, EPSPS (5-enolpyruvylshikimate-3-phosphate synthase), glyphosate-resistant (R) population.
T1 construct: native enzyme in leaf extract (total soluble protein) of R plants, not recombinant; no target-site substitution at codons 101, 102, 103, 106, 144, 192; homoeologous copies not resolved
Briefly: phosphate release, EnzChek Phosphate Assay Kit, […] nm, leaf extract. The format is biochemical, Bromus catharticus. The settings on record: substrates phosphoenolpyruvate and shikimate-3-phosphate; glyphosate 0 to 5,000 μM; Figure 6 legend fit prints 0.16; read-out: I50.

With `O=C(O)CNCP(=O)(O)O` [glyphosate, N-phosphonomethyl glycine], the IC50 is 0.15 µM.
